Data as given in patent US8362022B2, “Selective subtype alpha 2 adrenergic agents and methods for use thereof” (Allergan, Inc., priority 2008, dated 2013).

Columns and labels:
Alpha 1A = molecular target: T1, Alpha 1A (Homo sapiens, UniProt P35348); test: RSAT assay (Receptor Selection and Amplification Technology), Alpha 1A; type: cell-based; settings: value in parentheses, ratio of maximal effect of drug to maximal effect of standard full agonist
T1 sequence (P35348 1-466): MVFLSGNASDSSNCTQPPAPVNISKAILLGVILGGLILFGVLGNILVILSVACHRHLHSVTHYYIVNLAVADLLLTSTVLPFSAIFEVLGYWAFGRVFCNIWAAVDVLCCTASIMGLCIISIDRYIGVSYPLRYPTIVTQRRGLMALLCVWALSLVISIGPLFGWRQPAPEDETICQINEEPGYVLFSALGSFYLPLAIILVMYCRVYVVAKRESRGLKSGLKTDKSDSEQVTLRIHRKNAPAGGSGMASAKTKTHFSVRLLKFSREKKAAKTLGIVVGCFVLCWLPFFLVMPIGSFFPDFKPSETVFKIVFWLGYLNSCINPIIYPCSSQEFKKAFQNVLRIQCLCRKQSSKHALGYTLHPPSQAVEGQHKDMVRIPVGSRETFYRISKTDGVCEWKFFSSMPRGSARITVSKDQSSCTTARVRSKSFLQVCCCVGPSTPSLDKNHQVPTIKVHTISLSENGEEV
Method: (§1) The RSAT assay measures a receptor-mediated loss of contact inhibition that results in selective proliferation of receptor-containing cells in a mixed population of confluent cells. The increase in cell number is assessed with an appropriate transfected marker gene such as β-galactosidase, the activity of which can be easily measured in a 96-well format. Receptors that activate the G protein, Gq, elicit this response. Alpha 2 receptors, which normally couple to Gi, activate the RSAT response when coexpressed with a hybrid Gq protein that has a Gi receptor recognition domain, called Gq/i5.
(§2) NIH-3T3 cells are plated at a density of 2×10^6 cells in 15 cm dishes and maintained in Dulbecco's modified Eagle's medium supplemented with 10% calf serum. One day later, cells are cotransfected by calcium phosphate precipitation with mammalian expression plasmids encoding p-SV-β-galactosidase (5-10 μg), receptor (1-2 μg) and G protein (1-2 μg). 40 μg salmon sperm DNA may also be included in the transfection mixture. […] Cells are thawed and 100 μl added to 100 μL aliquots of various concentrations of drugs in triplicate in 96-well dishes. Incubations continue 72-96 hr at 37° C. After washing with phosphate-buffered saline, β-galactosidase enzyme activity is determined by adding 200 μL of the chromogenic substrate (consisting of 3.5 mM o-nitrophenyl-β-D-galactopyranoside and 0.5% nonidet P-40 in phosphate buffered saline), incubating overnight at 30° C. and measuring optical density at 420 nm. The absorbance is a measure of enzyme activity, which depends on cell number and reflects a receptor-mediated cell proliferation. The efficacy or intrinsic activity is calculated as a ratio of the maximal effect of the drug to the maximal effect of a standard full agonist for each receptor subtype. Brimonidine, the chemical structure of which is shown below, is used as the standard agonist for the alpha 2B and alpha 2C receptors. […] NA stands for “not active” at concentrations less than 3-10 micromolar.

alpha 2B receptor = molecular target: T2, alpha 2B receptor (Homo sapiens, UniProt P18089); test: RSAT assay (Receptor Selection and Amplification Technology), Alpha 2B; type: cell-based; settings: RSAT, Table 1
T2 construct: expressed in transfected cells; host or cells: NIH-3T3
T2 sequence (P18089 1-450): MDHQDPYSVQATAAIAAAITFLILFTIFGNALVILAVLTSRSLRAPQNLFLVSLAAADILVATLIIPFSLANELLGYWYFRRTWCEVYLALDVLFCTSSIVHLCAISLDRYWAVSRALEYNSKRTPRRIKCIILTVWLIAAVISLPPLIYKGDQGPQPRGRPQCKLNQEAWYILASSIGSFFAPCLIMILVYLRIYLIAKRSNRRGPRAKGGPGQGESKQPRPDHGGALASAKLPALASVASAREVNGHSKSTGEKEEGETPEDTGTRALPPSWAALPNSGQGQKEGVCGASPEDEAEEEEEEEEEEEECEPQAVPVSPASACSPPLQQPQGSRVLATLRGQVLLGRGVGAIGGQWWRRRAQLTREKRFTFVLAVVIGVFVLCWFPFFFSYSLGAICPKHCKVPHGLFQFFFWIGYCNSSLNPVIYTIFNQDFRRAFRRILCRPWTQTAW
Method: as §1, §2

Cc1cccc(C(Cc2cccnc2)/N=C2/NCCO2)c1C (stereo not drawn) [Compound 21, 1-(2,3-Dimethylphenyl)-N-(oxazolidin-2-ylidene)-2-(pyridin-3-yl)ethanamine]
Intrinsic Activity efficacy Alpha 1A (Alpha 1A): 0.6
EC50 (alpha 2B receptor; transfected NIH-3T3 cells with Gq/i5, read-out: potency nM (EC50) Alpha 2B): 5 nM
Intrinsic Activity efficacy Alpha 2B (alpha 2B receptor; value in parentheses, ratio of maximal effect to that of brimonidine): 1.2
